Source: ChEMBL document CHEMBL5247642, “Structural Optimization of Fibroblast Growth Factor Receptor Inhibitors for Treating Solid Tumors” (J Med Chem, 2023)
Converted amounts (≈) assume the structure as drawn. The source made the active and inactive calls. The rule behind the calls is not given here.

Experiments:
[1] = Solubility of compound in PBS at pH 7.4 at 1 to 100 microg/ml by laser nephelometry analysis; type: physicochemical; settings: dose 1-100 µg/ml
[2] = biological target: T1, Fibroblast growth factor receptor 1 (Homo sapiens, UniProt P11362); settings: dose 100.0 nM, time 60.0 min
Target sequence in this assay (P11362 22-822 limits assumed): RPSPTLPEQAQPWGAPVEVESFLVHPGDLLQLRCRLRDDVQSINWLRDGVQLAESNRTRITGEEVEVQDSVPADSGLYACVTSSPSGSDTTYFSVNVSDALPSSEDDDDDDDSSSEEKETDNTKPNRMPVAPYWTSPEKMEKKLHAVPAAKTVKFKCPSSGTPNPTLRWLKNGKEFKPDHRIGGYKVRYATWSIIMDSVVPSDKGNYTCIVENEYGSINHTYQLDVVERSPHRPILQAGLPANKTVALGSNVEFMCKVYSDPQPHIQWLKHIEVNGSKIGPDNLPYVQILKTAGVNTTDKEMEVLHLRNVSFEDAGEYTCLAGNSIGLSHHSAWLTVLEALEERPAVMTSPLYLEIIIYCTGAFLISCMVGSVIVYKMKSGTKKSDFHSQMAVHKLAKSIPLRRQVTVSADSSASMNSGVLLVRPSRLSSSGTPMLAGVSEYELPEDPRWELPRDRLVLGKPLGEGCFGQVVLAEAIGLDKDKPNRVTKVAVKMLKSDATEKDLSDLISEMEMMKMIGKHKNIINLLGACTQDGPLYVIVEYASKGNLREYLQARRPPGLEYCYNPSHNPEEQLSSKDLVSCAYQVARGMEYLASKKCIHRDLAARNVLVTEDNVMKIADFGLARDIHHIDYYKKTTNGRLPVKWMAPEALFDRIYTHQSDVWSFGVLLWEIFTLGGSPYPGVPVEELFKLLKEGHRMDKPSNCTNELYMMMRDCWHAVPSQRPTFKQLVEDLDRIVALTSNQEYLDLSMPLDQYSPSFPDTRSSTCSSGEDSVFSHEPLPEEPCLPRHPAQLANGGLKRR

[3] = biological target: T1, Fibroblast growth factor receptor 1; experiment: Inhibition of FGFR1 (unknown origin) using Poly (Glu,Tyr) 4:1 as substrate incubated for 60 mins in presence of ATP by ELISA analysis
Target sequence in this assay (P11362 whole entry): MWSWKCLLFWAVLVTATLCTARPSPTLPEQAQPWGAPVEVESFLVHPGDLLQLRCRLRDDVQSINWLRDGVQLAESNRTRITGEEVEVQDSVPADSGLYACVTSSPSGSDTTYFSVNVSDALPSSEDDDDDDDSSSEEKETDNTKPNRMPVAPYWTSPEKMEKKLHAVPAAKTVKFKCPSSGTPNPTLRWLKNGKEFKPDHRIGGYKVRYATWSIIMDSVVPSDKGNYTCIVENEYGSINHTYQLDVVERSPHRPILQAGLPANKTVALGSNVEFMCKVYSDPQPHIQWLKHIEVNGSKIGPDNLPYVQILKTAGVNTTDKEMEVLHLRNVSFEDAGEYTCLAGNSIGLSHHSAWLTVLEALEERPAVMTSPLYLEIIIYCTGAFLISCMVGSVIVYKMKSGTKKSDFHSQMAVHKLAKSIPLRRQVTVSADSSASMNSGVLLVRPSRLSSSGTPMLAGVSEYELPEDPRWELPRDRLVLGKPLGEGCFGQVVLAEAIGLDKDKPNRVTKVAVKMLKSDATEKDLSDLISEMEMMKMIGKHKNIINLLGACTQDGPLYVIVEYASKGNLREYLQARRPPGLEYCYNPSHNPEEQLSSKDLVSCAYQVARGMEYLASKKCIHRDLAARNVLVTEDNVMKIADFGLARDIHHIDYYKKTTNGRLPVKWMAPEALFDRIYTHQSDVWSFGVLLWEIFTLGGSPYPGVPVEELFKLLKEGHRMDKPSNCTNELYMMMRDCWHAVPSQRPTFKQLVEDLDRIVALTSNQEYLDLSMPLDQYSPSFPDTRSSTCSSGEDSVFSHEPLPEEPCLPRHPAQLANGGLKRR

[4] = system: SNU-16; experiment: Antiproliferative activity against human SNU-16 cells assessed as reduction in cell viability measured for 72 hrs; type: functional, cell-based; settings: SNU-16, 72 h
[5] = biological target: T1, Fibroblast growth factor receptor 1; settings: dose 10.0 nM, time 60.0 min
Target sequence in this assay (P11362 22-822 limits assumed): as the sequence (P11362 22-822 limits assumed) above

[6] = biological target: T1, Fibroblast growth factor receptor 1; settings: dose 1.0 nM, time 60.0 min
Target sequence in this assay (P11362 22-822 limits assumed): as above

[7] = system: NCI-H1581; experiment: Antiproliferative activity against human NCI-H1581 cells expressing FGFR1 assessed as reduction in cell viability measured after 72 hrs; type: functional, cell-based; settings: NCI-H1581, 72 h
[8] = system: NCI-H716; experiment: Antiproliferative activity against human NCI-H716 cells expressing FGFR2 assessed as reduction in cell viability measured after 72 hrs; type: functional, cell-based; settings: NCI-H716, 72 h
[9] = Stability in rat whole blood assessed as parent compound remaining measured upto 5 hrs by LC-MS/MS analysis; type: ADME, tissue-based
[10] = GSH reactivity in PBS buffer assessed as percentage peak area ratio incubated for 24 hrs by LC-MS/MS analysis; type: physicochemical
[11] = Solubility of compound in PBS at pH 7.4; type: physicochemical
[12] = biological target: Fibroblast growth factor receptor 2 (Homo sapiens, UniProt P21802); experiment: Inhibition of FGFR2 (unknown origin) using Poly (Glu,Tyr) 4:1 as substrate incubated for 60 mins in presence of ATP by ELISA analysis
Sequence of Fibroblast growth factor receptor 2 (P21802 whole entry): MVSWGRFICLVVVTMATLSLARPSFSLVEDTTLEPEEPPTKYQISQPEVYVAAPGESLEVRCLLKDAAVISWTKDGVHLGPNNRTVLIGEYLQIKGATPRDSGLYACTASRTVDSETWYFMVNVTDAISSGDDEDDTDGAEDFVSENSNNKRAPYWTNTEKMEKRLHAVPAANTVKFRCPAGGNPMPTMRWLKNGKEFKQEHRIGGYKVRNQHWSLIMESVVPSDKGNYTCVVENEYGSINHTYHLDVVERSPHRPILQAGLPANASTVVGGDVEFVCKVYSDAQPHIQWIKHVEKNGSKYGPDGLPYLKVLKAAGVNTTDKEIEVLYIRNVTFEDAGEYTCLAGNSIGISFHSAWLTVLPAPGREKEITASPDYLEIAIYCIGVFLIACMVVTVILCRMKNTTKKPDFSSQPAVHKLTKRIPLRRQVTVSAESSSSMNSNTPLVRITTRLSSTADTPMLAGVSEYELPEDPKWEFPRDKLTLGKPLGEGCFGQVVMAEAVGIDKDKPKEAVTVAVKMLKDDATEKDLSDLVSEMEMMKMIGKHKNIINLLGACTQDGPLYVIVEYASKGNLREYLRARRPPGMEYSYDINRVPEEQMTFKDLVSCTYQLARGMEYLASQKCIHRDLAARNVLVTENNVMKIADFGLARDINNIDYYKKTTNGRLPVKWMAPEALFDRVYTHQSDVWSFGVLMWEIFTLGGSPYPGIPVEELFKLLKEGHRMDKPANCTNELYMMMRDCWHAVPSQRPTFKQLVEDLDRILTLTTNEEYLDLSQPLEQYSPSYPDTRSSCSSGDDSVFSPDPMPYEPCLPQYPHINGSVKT

[13] = biological target: Fibroblast growth factor receptor 3 (Homo sapiens, UniProt P22607); experiment: Inhibition of FGFR3 (unknown origin) using Poly (Glu,Tyr) 4:1 as substrate incubated for 60 mins in presence of ATP by ELISA analysis
Sequence of Fibroblast growth factor receptor 3 (P22607 whole entry): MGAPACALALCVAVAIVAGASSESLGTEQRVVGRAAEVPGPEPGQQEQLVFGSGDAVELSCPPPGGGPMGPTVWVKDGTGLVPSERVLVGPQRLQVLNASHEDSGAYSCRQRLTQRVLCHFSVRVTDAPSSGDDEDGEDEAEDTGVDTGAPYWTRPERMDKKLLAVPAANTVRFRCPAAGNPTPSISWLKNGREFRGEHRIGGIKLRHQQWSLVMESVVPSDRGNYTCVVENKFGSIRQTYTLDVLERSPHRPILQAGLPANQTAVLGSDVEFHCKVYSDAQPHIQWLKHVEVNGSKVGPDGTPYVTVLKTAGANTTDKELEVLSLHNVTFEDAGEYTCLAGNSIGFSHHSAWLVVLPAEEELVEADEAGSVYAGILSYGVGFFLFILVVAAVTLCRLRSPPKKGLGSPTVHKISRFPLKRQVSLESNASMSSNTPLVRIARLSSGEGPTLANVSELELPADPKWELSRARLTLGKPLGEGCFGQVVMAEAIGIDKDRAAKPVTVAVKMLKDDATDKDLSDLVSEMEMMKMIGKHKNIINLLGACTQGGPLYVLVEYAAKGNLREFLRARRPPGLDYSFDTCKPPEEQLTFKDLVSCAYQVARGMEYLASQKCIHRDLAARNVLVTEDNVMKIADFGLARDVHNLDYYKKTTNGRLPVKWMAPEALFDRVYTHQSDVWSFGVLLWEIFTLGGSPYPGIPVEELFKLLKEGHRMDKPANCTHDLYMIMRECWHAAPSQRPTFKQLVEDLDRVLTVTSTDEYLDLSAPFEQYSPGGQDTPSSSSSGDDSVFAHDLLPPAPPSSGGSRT

[14] = biological target: Fibroblast growth factor receptor 4 (Homo sapiens, UniProt P22455); experiment: Inhibition of FGFR4 (unknown origin) using Poly (Glu,Tyr) 4:1 as substrate incubated for 60 mins in presence of ATP by ELISA analysis
Sequence of Fibroblast growth factor receptor 4 (P22455 whole entry): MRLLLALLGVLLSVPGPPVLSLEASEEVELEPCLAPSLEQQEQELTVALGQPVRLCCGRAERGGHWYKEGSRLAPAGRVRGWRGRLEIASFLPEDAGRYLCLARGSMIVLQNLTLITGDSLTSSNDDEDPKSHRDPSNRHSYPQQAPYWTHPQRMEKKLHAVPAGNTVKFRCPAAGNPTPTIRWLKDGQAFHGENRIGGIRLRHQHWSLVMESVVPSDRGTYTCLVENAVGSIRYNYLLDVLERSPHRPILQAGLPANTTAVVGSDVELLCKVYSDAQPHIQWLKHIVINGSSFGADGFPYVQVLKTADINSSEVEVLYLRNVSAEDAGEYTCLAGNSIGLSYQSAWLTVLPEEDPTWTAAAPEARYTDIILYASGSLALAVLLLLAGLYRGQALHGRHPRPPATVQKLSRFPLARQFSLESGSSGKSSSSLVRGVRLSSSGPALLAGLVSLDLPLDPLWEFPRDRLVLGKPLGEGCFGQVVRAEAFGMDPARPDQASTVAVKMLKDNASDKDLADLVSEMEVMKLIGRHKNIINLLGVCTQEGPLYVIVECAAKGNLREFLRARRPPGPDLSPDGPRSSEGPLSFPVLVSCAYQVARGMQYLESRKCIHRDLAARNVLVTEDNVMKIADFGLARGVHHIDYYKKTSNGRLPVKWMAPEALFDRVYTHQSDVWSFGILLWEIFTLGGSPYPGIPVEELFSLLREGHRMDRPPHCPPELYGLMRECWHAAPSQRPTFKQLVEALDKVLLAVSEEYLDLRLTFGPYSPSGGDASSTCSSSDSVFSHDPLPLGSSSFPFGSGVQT

[15] = Stability in rat whole blood assessed as parent compound remaining measured after 2 hrs by LC-MS/MS analysis; type: ADME, tissue-based; settings: read-out: Stability
[16] = biological target: Fibroblast growth factor receptor (Homo sapiens) (UniProt P22607+P11362+P22455+P21802); experiment: Inhibition of FGFR signalling in human SNU-16 assessed as inhibition of pErk phosphorylation at 0.1 nM incubated for 2 hrs by Western blot analysis; type: cell-based
Sequence of Fibroblast growth factor receptor (Homo sapiens) (P11362 whole entry, looked up): as the sequence (P11362 whole entry) above
Sequence of Fibroblast growth factor receptor (Homo sapiens) (P21802 whole entry, looked up): as the sequence (P21802 whole entry) above
Sequence of Fibroblast growth factor receptor (Homo sapiens) (P22455 whole entry, looked up): as the sequence (P22455 whole entry) above
Sequence of Fibroblast growth factor receptor (Homo sapiens) (P22607 whole entry, looked up): as the sequence (P22607 whole entry) above

[17] = biological target: Voltage-gated inwardly rectifying potassium channel KCNH2 (Homo sapiens, UniProt Q12809); experiment: Inhibition of hERG expressed in CHO cells at -80 mV holding potential by automated patch clamp method; type: toxicity, cell-based

C=C(F)C(=O)N1CCC(n2nc3c(=O)[nH]nc(N)c3c2-c2oc3ccc(C)cc3c2C)CC1
solubility kinetic [1]: 10 µg/mL (≈ 22.2 µM)

C=CC(=O)N1CCC(n2nc3c(=O)[nH]nc(N)c3c2-c2oc3ccc(F)cc3c2C)CC1
inhibition [2]: 20%

C=CC(=O)N1CCCC(n2nc3c(=O)[nH]nc(N)c3c2-c2oc3cc(OC)cc(OC)c3c2C)C1 (racemic)
inhibition [2]: 40%

C=CC(=O)N1CCCC(n2nc3c(=O)[nH]nc(N)c3c2-c2oc3ccc(Cl)cc3c2C)C1 (racemic)
IC50 [3]: 6.4 nM
IC50 [4]: < 0.3 nM

C=CC(=O)N[C@H]1CC[C@H](n2nc3c(=O)[nH]nc(N)c3c2-c2oc3ccc(C)cc3c2C)CC1
IC50 [4]: 3.1 nM
inhibition [2]: 85.7%
inhibition [5]: 47.4%
inhibition [6]: 32.4%

C=CC(=O)N1CCC(Cn2nc3c(=O)[nH]nc(N)c3c2-c2oc3ccc(C)cc3c2C)CC1
IC50 [4]: 2 nM
solubility kinetic [1]: 10 µg/mL (≈ 22.4 µM)
inhibition [2]: 61.6%
inhibition [5]: 48.3%
inhibition [6]: 29.5%

C#CC(=O)N1CCCC(n2nc3c(=O)[nH]nc(N)c3c2-c2oc3ccc(C)cc3c2C)C1 (racemic)
IC50 [3]: 3.9 nM
IC50 [4]: 15.8 nM

CC/C=C/C(=O)N1CCCC(n2nc3c(=O)[nH]nc(N)c3c2-c2oc3ccc(C)cc3c2C)C1 (racemic)
IC50 [3]: 122 nM

C=CC(=O)N1CCC(n2nc3c(=O)[nH]nc(N)c3c2-c2oc3ccc(C(F)(F)F)cc3c2C)CC1
inhibition [2]: 27%

C=C(C)C(=O)N1CCCC(n2nc3c(=O)[nH]nc(N)c3c2-c2oc3ccc(C)cc3c2C)C1 (racemic)
inhibition [2]: 36%

CCC#CC(=O)N1CCC(n2nc3c(=O)[nH]nc(N)c3c2-c2oc3ccc(C)cc3c2C)CC1
IC50 [3]: 7.71 nM
IC50 [4]: < 0.3 nM
solubility kinetic [1]: 1 µg/mL (≈ 2.18 µM)

Cc1ccc2oc(-c3c4c(N)n[nH]c(=O)c4nn3C3CCN(C(=O)C#CCO)CC3)c(C)c2c1
IC50 [3]: 2.2 nM
IC50 [4]: 16.6 nM

Cc1ccc2oc(-c3c4c(N)n[nH]c(=O)c4nn3C3CCCN(C(=O)/C=C/CN(C)C)C3)c(C)c2c1 (racemic)
IC50 [3]: 117 nM
solubility kinetic [1]: 10 µg/mL (≈ 20.4 µM)

C=CC(=O)N1CCC[C@@H](n2nc(-c3ccc(Oc4ccccc4)cc3)c3c(N)ncnc32)C1 [IBRUTINIB]
solubility kinetic [1]: 10 µg/mL (≈ 22.7 µM)

CC#CC(=O)N1CCCC(n2nc3c(=O)[nH]nc(N)c3c2-c2oc3ccc(C)cc3c2C)C1 (racemic)
IC50 [3]: 27.3 nM
IC50 [4]: 35.2 nM

C/C=C(\C)C(=O)N1CCCC(n2nc3c(=O)[nH]nc(N)c3c2-c2oc3ccc(C)cc3c2C)C1 (racemic)
inhibition [2]: 37%

COc1cc(CCc2cc(NC(=O)c3ccc(N4C[C@@H](C)N[C@@H](C)C4)cc3)n[nH]2)cc(OC)c1 [FEXAGRATINIB]
IC50 [4]: 3.7 nM
IC50 [7]: 15.8 nM
IC50 [8]: 0.6 nM

C/C=C/C(=O)N1CCCC(n2nc3c(=O)[nH]nc(N)c3c2-c2oc3ccc(C)cc3c2C)C1 (racemic)
IC50 [3]: 67.7 nM

C=CC(=O)N1CCC(n2nc3c(=O)[nH]nc(N)c3c2-c2oc3ccc(OC)cc3c2C)CC1
inhibition [2]: 44%

C=CC(=O)N1CCC(n2nc3c(=O)[nH]nc(N)c3c2-c2oc3ccc(Cl)cc3c2C)CC1
IC50 [3]: 2 nM
IC50 [4]: 9 nM

C=CC(=O)N1CCC(n2nc3c(=O)[nH]nc(N)c3c2-c2oc3cccc(OC)c3c2C)CC1
IC50 [3]: 111 nM
IC50 [4]: < 0.3 nM

CC#CC(=O)N1CCC(n2nc3c(=O)[nH]nc(N)c3c2-c2oc3ccc(C)cc3c2C)CC1
IC50 [3]: 6.7 nM
IC50 [4]: < 0.3 nM
solubility kinetic [1]: 1 µg/mL (≈ 2.25 µM)
Stability [9]: Stable
Activity [10]: 87%

CCC#CC(=O)N1CCCC(n2nc3c(=O)[nH]nc(N)c3c2-c2oc3ccc(C)cc3c2C)C1 (racemic)
IC50 [3]: 25.4 nM
IC50 [4]: 36.4 nM

C=CC(=O)N1CCCC(n2nc3c(=O)[nH]nc(N)c3c2-c2oc3cccc(OC)c3c2C)C1 (racemic)
inhibition [2]: 32%

C=CC(=O)N1CCC(n2nc3c(=O)[nH]nc(N)c3c2-c2oc3cc(OC)ccc3c2C)CC1
IC50 [3]: 101 nM
IC50 [4]: 8.9 nM

C=CC(=O)Nc1ccc(-n2nc3c(=O)[nH]nc(N)c3c2-c2oc3ccc(C)cc3c2C)cc1
solubility [11]: 1 µg/mL (≈ 2.27 µM)
solubility kinetic [1]: 1 µg/mL (≈ 2.27 µM)

Cc1ccc2oc(-c3c4c(N)n[nH]c(=O)c4nn3C3CCCN(C(=O)CC#N)C3)c(C)c2c1 (racemic)
inhibition [2]: 31%

C=CC(=O)N1CCC(n2nc3c(=O)[nH]nc(N)c3c2-c2oc3ccc(C)cc3c2C)CC1
IC50 [3]: 8 nM
IC50 [12]: 4.4 nM
IC50 [13]: 18.7 nM
IC50 [14]: 45.5 nM
IC50 [4]: < 0.05 nM
solubility kinetic [1]: 10 µg/mL (≈ 23.1 µM)
Stability [9]: Stable
remaining at 2 h [15]: > 40%
Activity [10]: 84%
inhibition [16]: Active
IC50 [17]: 1130 nM
inhibition [2]: 91.2%
inhibition [5]: 78.2%
inhibition [6]: 14.2%

C=CC(=O)N1CCC(n2nc3c(=O)[nH]nc(N)c3c2-c2oc3cc(F)ccc3c2C)CC1
IC50 [3]: 6.5 nM
IC50 [4]: 1.5 nM
solubility kinetic [1]: 10 µg/mL (≈ 22.9 µM)

C=CC(=O)N1CCC(n2nc3c(=O)[nH]nc(N)c3c2-c2oc3cc(C)ccc3c2C)CC1
IC50 [3]: 2.3 nM
IC50 [4]: < 0.3 nM
solubility kinetic [1]: 10 µg/mL (≈ 23.1 µM)

C=CC(=O)N1CCC(n2nc3c(=O)[nH]nc(N)c3c2-c2oc3cc(OC)cc(OC)c3c2C)CC1
IC50 [3]: 84.4 nM
inhibition [2]: 44%

CN(C)C/C=C/C(=O)Nc1cc2c(Nc3ccc(F)c(Cl)c3)ncnc2cc1O[C@H]1CCOC1 [AFATINIB]
solubility kinetic [1]: 50 µg/mL (≈ 103 µM)

C#CC(=O)N1CCC(n2nc3c(=O)[nH]nc(N)c3c2-c2oc3ccc(C)cc3c2C)CC1
IC50 [3]: 0.9 nM
IC50 [4]: < 0.3 nM
solubility kinetic [1]: 10 µg/mL (≈ 23.2 µM)
Stability [9]: Unstable
Activity [10]: 0%

C=CC(=O)N1CCCC(n2nc3c(=O)[nH]nc(N)c3c2-c2oc3cc(OC)ccc3c2C)C1 (racemic)
inhibition [2]: 11%

Cc1ccc2oc(-c3c4c(N)n[nH]c(=O)c4nn3C3CCCN(C(=O)C#CCO)C3)c(C)c2c1 (racemic)
IC50 [3]: 21.9 nM
IC50 [4]: 82.9 nM
